The text below walks through data of patent EP0406428B1, “PEPTIDE DERIVATIVES AND THEIR USE” (ASAHI GLASS COMPANY LTD., priority 1988, dated 1995).

The test system of one series is blood platelet. In words: Decrease in number of blood platelet in surgical operation using artificial heart and lung. To be noted: surgical operations using artificial heart and lung; control PBS. In kind it is in vivo. The protocol:
The following Table indicates the results of examination of decrease in the number of the blood platelet, when 100 »g (per 1 kg of weight/minute) of [formula] was added for the purpose of the surgical operation. As the control, there was added PBS in place of peptide.

The subject of the next series is trypsin. In words: Peptide map: decomposition with trypsin, HPLC analysis. In kind it is in vitro ADME. The following applies: Tris-HCl 100 mM pH 8.5, 37°C, 24 hours, compared with linear peptide (GRGDSPA). On the procedure:
Peptide was dissolved in 10 mg/mℓ of distilled water. 20 »l of this solution was diluted with addition of 180 »l of a buffer solution (Tris-HCl, 100 mM, pH 8.5). To this diluted solution, 5 »l of a trip solution (1 mg/mℓ […], CaCl₂ 10 mM) was added, and the mixture was kept at a temperature of 37°C for 24 hours. Then, 10 »l of 2N HCl was added to this mixed solution to complete the reaction. Out of this reaction liquid, 50 »l was provided for high performance liquid chromatography HPLC for its analysis. Condition for Analysis HP HPLC: Waters Model 510 Column: YMC-ODS Detection: A₂₁₄ Elution: Liquid A - 0.1% aqueous solution of TFA Liquid B - 0.1% acetonitrile solution of TFA Linear concentration gradient of: 0% B → 30% B (0 min.) (30 min.) Figure 1 is a graphical representation showing the result of analysis of the cyclic peptide synthesized in accordance with this Example. Also, the linear peptide (GRGDSPA) synthesized in accordance with (14) above was tested under the same conditions as mentioned above. The result of its analysis is shin in Figure 2.

Molecules are shown by their SMILES. Residues, ends and D or L forms follow the SMILES beside them.

On to `C[C@@H]1NC(=O)[C@@H]2CCCN2C(=O)[C@H](CO)NC(=O)[C@H](CC(=O)O)NC(=O)CNC(=O)[C@H](CCCNC(=N)N)NC(=O)CNC1=O` [Example I00042] (cyclo(RGDSPAG)), for which the “inhibiting aggregation of blood platelet” value in the series on blood platelet is reported as “capability of inhibiting such aggregation at its low concentration”. With `C[C@@H]1NC(=O)[C@@H]2CCCN2C(=O)[C@H](CO)NC(=O)[C@H](CC(=O)O)NC(=O)CNC(=O)[C@H](CCCNC(=N)N)NC(=O)CNC1=O` [Example 1] (cyclo(RGDSPAG)), in the series with trypsin, the “decomposition by treatment with trypsin” value is listed as “difficult to undergo further decomposition”.
